# Laboratory results as given in US20150299188A1, “HETEROCYCLIC COMPOUND” (priority 2012, published 2015).
# Tested on: FLAP (5-lipoxygenase activating protein)
# Experiment: In vitro binding test: displacement of [3H]-7-chloro-3-(5-((3-fluoropyridin-2-yl)methoxy)-2-methylphenyl)-3,4-dihydroquinazolin-2(1H)-one from Sf9 microsome fractions
# Set-up: species or system human and mouse
# Conditions: Sf9 microsome fractions expressing FLAP; 100% = radioligand binding with 10 μM sodium 3-(3-(tert-butylsulfanyl)-1-(4-chlorobenzyl)-5-isopropyl-1H-indol-2-yl)-2,2-dimethylpropanoate, 0% = DMSO; test compound concentration not given
# Method in brief: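 Sf9 microsomes expressing human or mouse FLAP (2 μg/mL) preincubated with compound 10 min at room temperature, then 120 nM tritiated quinazolinone ligand added for 60 min; buffer 100 mM Tris-HCl pH 7.5 with NaCl, EDTA, DTT, glycerol, Tween20. Bound ligand filtered and counted by scintillation; 10 μM indole propanoate defines 100% inhibition, DMSO 0%.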
row,SMILES,inhibitory rate (%)
1,"Cc1cc2c(cc1N1Cc3c(cc(-n4cc(CO)cn4)nc3C3CC3)NC1=O)OC(c1ncccc1F)CC2 (stereo not drawn) [Example 123, 5-cyclopropyl-3-(2-(3-fluoropyridin-2-yl)-6-methyl-3,4-dihydro-2H-chromen-7-yl)-7-(4-(hydroxymethyl)-1H-pyrazol-1-yl)-3,4-dihydropyrido[4,3-d]pyrimidin-2(1H)-one]",98
2,"O=c1[nH]c2cc[nH]c2c(=O)n1-c1cccc(OCc2c(F)cccc2F)c1 [Example 325, 3-(3-((2,6-difluorobenzyl)oxy)phenyl)-1H-pyrrolo[3,2-d]pyrimidine-2,4(3H,5H)-dione]",65
3,"Cc1ccc(OCc2c(F)cccc2F)cc1N1Cc2ccncc2NC1=O [Example 240, 3-(5-((2,6-difluorobenzyl)oxy)-2-methylphenyl)-3,4-dihydropyrido[3,4-d]pyrimidin-2(1H)-one]",76
4,"Cc1ccc(OCc2c(F)cccc2F)cc1N1Cc2ccc(CO)cc2NC1=O [Example 181, 3-(5-((2,6-difluorobenzyl)oxy)-2-methylphenyl)-7-(hydroxymethyl)-3,4-dihydroquinazolin-2(1H)-one]",91
5,"CC(C)(O)c1ccc2c(c1)NC(=O)N(c1cc(OCc3c(F)cccc3F)ccc1C(F)(F)F)C2 [Example 238, 3-(5-((2,6-difluorobenzyl)oxy)-2-(trifluoromethyl)phenyl)-7-(2-hydroxypropan-2-yl)-3,4-dihydroquinazolin-2(1H)-one]",84
6,"CC(C)(O)c1ccc2c(c1)NC(=O)N(c1cc(OCc3c(F)cccc3F)ccc1Cc1ccccn1)C2 [Example 316, 3-(5-((2,6-difluorobenzyl)oxy)-2-(pyridin-2-ylmethyl)phenyl)-7-(2-hydroxypropan-2-yl)-3,4-dihydroquinazolin-2(1H)-one]",50
7,"Cc1ccc(OCc2ncccc2F)cc1N1Cc2ncccc2NC1=O [Example 272, 3-(5-((3-fluoropyridin-2-yl)methoxy)-2-methylphenyl)-3,4-dihydropyrido[3,2-d]pyrimidin-2(1H)-one]",95
8,"O=c1[nH]c2cnccc2c(=O)n1-c1cccc(OCc2c(F)cccc2F)c1 [Example 330, 3-(3-((2,6-difluorobenzyl)oxy)phenyl)pyrido[3,4-d]pyrimidine-2,4(1H,3H)-dione]",72
9,"Cc1ccc(OCc2ncccc2Br)cc1-n1c(=O)[nH]c2ccccc2c1=O [Example 371, 3-(5-((3-bromopyridin-2-yl)methoxy)-2-methylphenyl)quinazoline-2,4(1H,3H)-dione]",96
10,"Cc1ccc(OCc2ncccc2F)cc1N1Cc2c(Cl)cccc2N(CC(=O)O)C1=O [Example 285, (5-chloro-3-(5-((3-fluoropyridin-2-yl)methoxy)-2-methylphenyl)-2-oxo-3,4-dihydroquinazolin-1(2H)-yl)acetic acid]",102
11,"Cc1ccc(OCc2ncccc2F)cc1N1Cc2c(ccnc2Cl)NC1=O [Example 279, 5-chloro-3-(5-((3-fluoropyridin-2-yl)methoxy)-2-methylphenyl)-3,4-dihydropyrido[4,3-d]pyrimidin-2(1H)-one]",103
12,"O=C1Nc2cc(-c3ncco3)nc(C3CC3)c2CN1c1cc2c(cc1Cl)CCC(c1ncccc1F)O2 (stereo not drawn) [Example 85, 3-(6-chloro-2-(3-fluoropyridin-2-yl)-3,4-dihydro-2H-chromen-7-yl)-5-cyclopropyl-7-(1,3-oxazol-2-yl)-3,4-dihydropyrido[4,3-d]pyrimidin-2(1H)-one]",102
13,"COC(=O)c1ccc(OCc2c(F)cccc2F)cc1N1Cc2ccccc2NC1=O [Example 188, methyl 4-((2,6-difluorobenzyl)oxy)-2-(2-oxo-1,4-dihydroquinazolin-3(2H)-yl)benzoate]",83
14,"CCCc1ccc(OCc2ncccc2F)cc1N1Cc2ccccc2NC1=O [Example 245, 3-(5-((3-fluoropyridin-2-yl)methoxy)-2-propylphenyl)-3,4-dihydroquinazolin-2(1H)-one]",99
15,"Cc1ccc(OCc2ncccc2F)cc1N1Cc2c(Cl)cccc2N(CC(N)=O)C1=O [Example 286, 2-(5-chloro-3-(5-((3-fluoropyridin-2-yl)methoxy)-2-methylphenyl)-2-oxo-3,4-dihydroquinazolin-1(2H)-yl)acetamide]",112
16,"COc1cccc2[nH]c(=O)n(-c3cc(OCc4ncccc4F)ccc3C)c(=O)c12 [Example 365, 3-(5-((3-fluoropyridin-2-yl)methoxy)-2-methylphenyl)-5-methoxyquinazoline-2,4(1H,3H)-dione]",94
17,"COc1cccc2c1CN(c1cc(OCc3ncccc3F)ccc1C)C(=O)N2 [Example 308, 3-(5-((3-fluoropyridin-2-yl)methoxy)-2-methylphenyl)-5-methoxy-3,4-dihydroquinazolin-2(1H)-one]",85
18,"Cc1ccc(OC(C)c2ncccc2F)cc1N1Cc2ccccc2NC1=O (stereo not drawn) [Example 215, 3-(5-(1-(3-fluoropyridin-2-yl)ethoxy)-2-methylphenyl)-3,4-dihydroquinazolin-2(1H)-one]",79
19,"Cc1ccc(OCc2cccc(F)c2F)cc1N1Cc2ccc(C(C)(C)O)cc2NC1=O [Example 203, 3-(5-((2,3-difluorobenzyl)oxy)-2-methylphenyl)-7-(2-hydroxypropan-2-yl)-3,4-dihydroquinazolin-2(1H)-one]",81
20,"COCCOc1cccc2c(=O)n(-c3cc(OCc4ncccc4F)ccc3C)c(=O)[nH]c12 [Example 354, 3-(5-((3-fluoropyridin-2-yl)methoxy)-2-methylphenyl)-8-(2-methoxyethoxy)quinazoline-2,4(1H,3H)-dione]",104
21,"Cc1ccc(OCc2ncccc2F)cc1N1Cc2cnccc2NC1=O [Example 268, 3-(5-((3-fluoropyridin-2-yl)methoxy)-2-methylphenyl)-3,4-dihydropyrido[4,3-d]pyrimidin-2(1H)-one]",83

# Further lines, results first:
row,inhibitory rate (%),SMILES
1,97,"Cc1cc2c(cc1N1Cc3c(Cl)cnc(-c4cnn(C)c4)c3NC1=O)OC(c1ncccc1F)CC2 (stereo not drawn) [Example 148, 5-chloro-3-(2-(3-fluoropyridin-2-yl)-6-methyl-3,4-dihydro-2H-chromen-7-yl)-8-(1-methyl-1H-pyrazol-4-yl)-3,4-dihydropyrido[3,4-d]pyrimidin-2(1H)-one]"
2,111,"Cc1cc2c(cc1N1Cc3c(cc(OC(F)F)nc3C3CC3)NC1=O)OC(c1ncccc1F)CC2 (stereo not drawn) [Example 128, 5-cyclopropyl-7-(difluoromethoxy)-3-(2-(3-fluoropyridin-2-yl)-6-methyl-3,4-dihydro-2H-chromen-7-yl)-3,4-dihydropyrido[4,3-d]pyrimidin-2 (1H)-one]"
3,115,"O=C1Nc2c(ccnc2Cl)CN1c1cc2c(cc1Cl)CCC(c1ncccc1F)O2 (stereo not drawn) [Example 54, 8-chloro-3-(6-chloro-2-(3-fluoropyridin-2-yl)-3,4-dihydro-2H-chromen-7-yl)-3,4-dihydropyrido[3,4-d]pyrimidin-2(1H)-one]"
4,99,"Cc1cc2c(cc1N1Cc3c(ccnc3C3CC3)NC1=O)OC(c1ncccc1F)CC2 (stereo not drawn) [Example 25, 5-cyclopropyl-3-(2-(3-fluoropyridin-2-yl)-6-methyl-3,4-dihydro-2H-chromen-7-yl)-3,4-dihydropyrido[4,3-d]pyrimidin-2(1H)-one]"
5,103,"O=C1Nc2cncc(Cl)c2CN1c1cc2c(cc1Cl)CCC(c1ncccc1F)O2 (stereo not drawn) [Example 152, 5-chloro-3-(6-chloro-2-(3-fluoropyridin-2-yl)-3,4-dihydro-2H-chromen-7-yl)-3,4-dihydropyrido[3,4-d]pyrimidin-2(1H)-one]"
6,96,"Cc1cc2c(cc1N1Cc3c(F)cncc3NC1=O)OC(c1ncccc1F)CC2 (stereo not drawn) [Example 88, 5-fluoro-3-(2-(3-fluoropyridin-2-yl)-6-methyl-3,4-dihydro-2H-chromen-7-yl)-3,4-dihydropyrido[3,4-d]pyrimidin-2(1H)-one]"
7,109,"Cc1cc2c(cc1N1Cc3c(Cl)cncc3NC1=O)OC(c1ncccc1F)CC2 (stereo not drawn) [Example 22, 5-chloro-3-(2-(3-fluoropyridin-2-yl)-6-methyl-3,4-dihydro-2H-chromen-7-yl)-3,4-dihydropyrido[3,4-d]pyrimidin-2(1H)-one]"
8,105,"Cc1cc2c(cc1N1Cc3cc(Cl)cnc3NC1=O)OC(c1ncccc1F)CC2 (stereo not drawn) [Example 48, 6-chloro-3-(2-(3-fluoropyridin-2-yl)-6-methyl-3,4-dihydro-2H-chromen-7-yl)-3,4-dihydropyrido[2,3-d]pyrimidin-2(1H)-one]"
9,107,"Cc1cc2c(cc1N1Cc3c(Cl)ncnc3NC1=O)OC(c1ncccc1F)CC2 (stereo not drawn) [Example 37, 5-chloro-3-(2-(3-fluoropyridin-2-yl)-6-methyl-3,4-dihydro-2H-chromen-7-yl)-3,4-dihydropyrimido[4,5-d]pyrimidin-2(1H)-one]"
10,104,"Cc1cc2c(cc1N1Cc3c(ccnc3-c3ncco3)NC1=O)OC(c1ncccc1F)CC2 (stereo not drawn) [Example 46, 3-(2-(3-fluoropyridin-2-yl)-6-methyl-3,4-dihydro-2H-chromen-7-yl)-5-(1,3-oxazol-2-yl)-3,4-dihydropyrido[4,3-d]pyrimidin-2(1H)-one]"
11,95,"COc1ncc(Cl)c2c1NC(=O)N(c1cc3c(cc1C)CCC(c1ncccc1F)O3)C2 (stereo not drawn) [Example 156, 5-chloro-3-(2-(3-fluoropyridin-2-yl)-6-methyl-3,4-dihydro-2H-chromen-7-yl)-8-methoxy-3,4-dihydropyrido[3,4-d]pyrimidin-2(1H)-one]"
12,101,"Cc1cc2c(cc1N1Cc3c(cncc3C3CC3)NC1=O)OC(c1ncccc1F)CC2 (stereo not drawn) [Example 26, 5-cyclopropyl-3-(2-(3-fluoropyridin-2-yl)-6-methyl-3,4-dihydro-2H-chromen-7-yl)-3,4-dihydropyrido[3,4-d]pyrimidin-2(1H)-one]"
